Source: ChEMBL document CHEMBL3352741, “Discovery of VU0431316: a negative allosteric modulator of mGlu5 with activity in a mouse model of anxiety” (Bioorg Med Chem Lett, 2014)

How the values were obtained:
[1] = molecular target: Metabotropic glutamate receptor 5 (Rattus norvegicus) (UniProt P31424); assay: Negative allosteric modulator activity at rat mGlu5 expressed in HEK293A cells assessed as reduction in 100 uM glutamate-induced calcium mobilization at 30 uM; format: functional, cell-based; details: HEK293-A
[2] = molecular target: Metabotropic glutamate receptor 5 (Rattus norvegicus, UniProt P31424); assay: Negative allosteric modulator activity at rat mGlu5 expressed in HEK293A cells assessed as reduction in glutamate-induced calcium mobilization; format: functional, cell-based, HEK293-A
Sequence of Metabotropic glutamate receptor 5 (P31424 whole entry): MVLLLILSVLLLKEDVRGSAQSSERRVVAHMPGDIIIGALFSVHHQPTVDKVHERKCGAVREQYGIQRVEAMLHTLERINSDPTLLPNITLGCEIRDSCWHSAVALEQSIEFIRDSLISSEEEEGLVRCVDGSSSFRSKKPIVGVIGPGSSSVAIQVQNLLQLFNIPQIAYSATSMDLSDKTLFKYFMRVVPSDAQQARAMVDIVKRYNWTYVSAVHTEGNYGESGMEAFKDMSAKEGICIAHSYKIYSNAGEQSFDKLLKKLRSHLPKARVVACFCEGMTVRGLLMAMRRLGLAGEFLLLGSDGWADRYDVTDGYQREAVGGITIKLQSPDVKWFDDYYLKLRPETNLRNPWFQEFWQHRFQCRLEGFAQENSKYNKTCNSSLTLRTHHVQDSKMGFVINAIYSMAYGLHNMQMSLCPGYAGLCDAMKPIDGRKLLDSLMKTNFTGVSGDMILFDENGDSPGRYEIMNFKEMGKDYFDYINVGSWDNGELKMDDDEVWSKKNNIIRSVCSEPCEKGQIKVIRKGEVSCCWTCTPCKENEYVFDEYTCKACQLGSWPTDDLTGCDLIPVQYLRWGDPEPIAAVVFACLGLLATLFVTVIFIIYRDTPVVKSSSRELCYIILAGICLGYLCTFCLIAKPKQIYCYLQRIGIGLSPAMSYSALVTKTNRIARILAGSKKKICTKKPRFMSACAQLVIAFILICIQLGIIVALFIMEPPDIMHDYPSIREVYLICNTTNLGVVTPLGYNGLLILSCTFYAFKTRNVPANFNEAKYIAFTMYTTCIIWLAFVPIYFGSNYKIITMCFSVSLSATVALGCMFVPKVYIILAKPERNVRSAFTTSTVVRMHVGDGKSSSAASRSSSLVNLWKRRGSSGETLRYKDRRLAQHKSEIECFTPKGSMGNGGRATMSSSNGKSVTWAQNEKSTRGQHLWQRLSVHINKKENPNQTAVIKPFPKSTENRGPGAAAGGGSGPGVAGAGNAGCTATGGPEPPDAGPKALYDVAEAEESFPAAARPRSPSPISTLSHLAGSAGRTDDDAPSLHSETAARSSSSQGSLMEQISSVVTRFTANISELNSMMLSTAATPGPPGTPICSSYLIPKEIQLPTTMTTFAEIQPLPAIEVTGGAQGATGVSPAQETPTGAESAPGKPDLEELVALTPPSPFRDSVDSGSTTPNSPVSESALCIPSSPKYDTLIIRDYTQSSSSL

Sequence of Metabotropic glutamate receptor 5 (Rattus norvegicus) (P31424 21-1203 limits assumed): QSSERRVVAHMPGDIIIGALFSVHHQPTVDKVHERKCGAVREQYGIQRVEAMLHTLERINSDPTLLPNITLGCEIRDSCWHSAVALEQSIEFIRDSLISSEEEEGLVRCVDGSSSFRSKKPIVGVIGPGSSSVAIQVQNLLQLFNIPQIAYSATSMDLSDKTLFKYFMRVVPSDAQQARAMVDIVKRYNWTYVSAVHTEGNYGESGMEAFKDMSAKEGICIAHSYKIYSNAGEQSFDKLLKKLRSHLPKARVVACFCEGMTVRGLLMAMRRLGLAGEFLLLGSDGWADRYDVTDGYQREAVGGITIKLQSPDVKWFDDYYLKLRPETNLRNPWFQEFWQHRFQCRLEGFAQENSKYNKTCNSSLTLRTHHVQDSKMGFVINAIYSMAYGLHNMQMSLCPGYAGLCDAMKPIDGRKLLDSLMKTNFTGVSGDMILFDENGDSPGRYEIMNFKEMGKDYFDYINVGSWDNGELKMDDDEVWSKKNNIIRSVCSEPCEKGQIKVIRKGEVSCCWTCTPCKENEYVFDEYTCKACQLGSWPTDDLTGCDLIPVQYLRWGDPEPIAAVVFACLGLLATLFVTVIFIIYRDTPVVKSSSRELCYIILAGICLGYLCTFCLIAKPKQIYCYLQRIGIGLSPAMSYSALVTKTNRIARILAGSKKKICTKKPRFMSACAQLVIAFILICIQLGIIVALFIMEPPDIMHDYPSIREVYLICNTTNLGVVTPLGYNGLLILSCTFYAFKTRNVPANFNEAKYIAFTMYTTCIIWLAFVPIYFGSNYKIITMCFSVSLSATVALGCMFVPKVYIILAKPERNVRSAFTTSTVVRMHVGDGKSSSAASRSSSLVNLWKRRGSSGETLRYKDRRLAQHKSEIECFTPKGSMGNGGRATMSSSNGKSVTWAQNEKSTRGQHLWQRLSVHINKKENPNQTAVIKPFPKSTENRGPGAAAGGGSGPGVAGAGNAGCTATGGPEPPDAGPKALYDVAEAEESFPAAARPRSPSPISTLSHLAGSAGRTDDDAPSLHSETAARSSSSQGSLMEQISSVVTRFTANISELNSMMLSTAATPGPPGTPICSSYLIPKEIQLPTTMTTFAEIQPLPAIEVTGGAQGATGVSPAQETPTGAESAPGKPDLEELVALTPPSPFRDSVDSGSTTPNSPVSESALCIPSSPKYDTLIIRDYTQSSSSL

| %max [1] [%] | IC50 [2] [µM] | SMILES |
| --- | --- | --- |
| -5.6 |  | COc1cccc(C(=O)Nc2cncc(Oc3cncc(F)c3)n2)c1 |
| 20 | > 10 | O=C(Nc1cncc(Oc2cncnc2)n1)c1cccs1 |
| 2.3 | 0.1 | O=C(Nc1cncc(Oc2cncnc2)n1)c1cc(Br)ccn1 |
| -0.4 | 3.82 | O=C(Nc1cncc(Oc2cncc(F)c2)n1)c1cccc(F)c1 |
|  | > 30 | O=C(Nc1cncc(Oc2cncc(F)c2)n1)c1ccncn1 |
|  | > 30 | O=C(Nc1cncc(Oc2cncc(F)c2)n1)c1cccnc1 |
|  | > 30 | Cc1ccc(C(=O)Nc2cncc(Oc3cncnc3)n2)s1 |
| 15 | > 10 | O=C(Nc1cncc(Oc2cncnc2)n1)c1ccsc1 |
| 2 | 0.118 | O=C(Nc1cncc(Oc2cncc(F)c2)n1)c1cccc(Cl)c1 |
|  | > 30 | O=C(Nc1cncc(Oc2cncc(F)c2)n1)c1cccc(Cl)n1 |
| 2 | 0.111 | O=C(Nc1cncc(Oc2cncc(F)c2)n1)c1cc(Cl)ccn1 |
| 1.7 | 0.311 | Cc1ccnc(C(=O)Nc2cncc(Oc3cncc(F)c3)n2)c1 |
| 2.1 | 0.199 | Cc1cccc(C(=O)Nc2cncc(Oc3cncc(F)c3)n2)c1 |
| 1.1 | 0.99 | Cc1cc(C(=O)Nc2cncc(Oc3cncc(F)c3)n2)cs1 |
|  | > 30 | O=C(Nc1cncc(Oc2cncc(F)c2)n1)c1cc(Cl)cc(Cl)c1 |
| -9.4 |  | O=C(Nc1cncc(Oc2cncc(F)c2)n1)c1ccccc1 |
|  | > 30 | O=C(Nc1cncc(Oc2cncc(F)c2)n1)c1cccnn1 |
| 22 | 8.43 | O=C(Nc1cncc(Oc2cncc(F)c2)n1)c1cscn1 |
| 7.8 | 6.37 | O=C(Nc1cncc(Oc2cncc(F)c2)n1)c1cccs1 |
| -2.8 | 4.59 | O=C(Nc1cncc(Oc2cncc(F)c2)n1)c1ccc(F)c(Cl)c1 |
| 0.1 |  | O=C(Nc1cncc(Oc2cncc(F)c2)n1)c1ccsc1 |
| 2.1 | 0.193 | Cc1ccnc(C(=O)Nc2cncc(Oc3cncnc3)n2)c1 |
